Experimental data published in patent publication US20260325538A1, “THERAPY” (priority 2023, published 2026).

Key:
[1] = system: Klebsiella pneumoniae K66-45 (NDM-1); test: Checkerboard MIC, fixed ratio of sBLI to antibiotic (Examples 3-6); type: cell-based; details: caMHB 29.4 μM Zn2+
Description: (§1) The antibiotics and serine β-lactamase-inhibitors (sBLIs) were purchased from the following suppliers: Ceftazidime (CAZ): Sigma-Aldrich; Cefepime (FEP): Sigma-Aldrich; Cefpodoxime (CEFP): MedChemExpress; Sulbactam (SUL): Sigma-Aldrich Avibactam (AVI): Biosynth; Vaborbactam (VAB): ABCR; Tazobactam (TAZ): Sigma-Aldrich; Taniborbactam (TAN): Sigma-Aldrich.
(§2) In each of Examples 3-23, the compound of Example 26 of WO 2018/033719 was employed as the zinc chelator. The following abbreviations are used in these examples: sBLI means serine-β-lactamase inhibitor; CFU means colony-forming unit, which is a group of microbes that grows from a single cell on a petri plate; DMSO means dimethyl sulfoxide; MHB means Mueller-Hinton broth; caMHB means cation-adjusted Mueller-Hinton broth; MIC means minimum inhibitory concentration—the lower the MIC, the more efficient the combination against the respective bacterial strain.
(§3) General Protocol Used in Examples 3-10 Employing a Fixed Ratio of sBLI to Antibiotic within Each Experiment:
(§4) Antimicrobial susceptibility testing (AST) by broth microdilution (MIC determination) was performed according to The European Committee on Antimicrobial Susceptibility Testing (EUCAST) guidelines (see Reading guide for broth microdilution Version 5.0, 2024: https://www.eucast.org).
(§5) Sterile clear round bottom polystyrene (non-treated) 96-well microplates (Corning 3788) were used for making serial two-fold dilutions of the antibiotic and the serine sBLI in cation-adjusted Mueller Hinton II broth (caMHB; Thermo Scientific, T3462, containing 29.4 μM Zn^2+), across the columns of the microtiter plate ([…]; columns 1-12). The checkerboard plates were all made by keeping the sBLI at a fixed ratio relative to antibiotic (absolute concentrations of each, in μg/mL) to all wells containing sample in each plate. Additionally, a set of samples were included in each test plate, where the zinc chelator was added, at various fixed concentrations, of 16 μg/mL, 8 μg/mL and/or 4 μg/mL (as specified in each Example). All sample wells contained growth medium (caMHB), and inoculated bacteria at a final inoculum between 3-7×10^5 CFU/mL. […] Synergy for the triple combination (antibiotic, sBLI, and zinc chelator) was defined as when the MIC in rows containing the zinc chelator in combination with antibiotic and sBLI (triple combination), was lower than for rows containing antibiotic and sBLI (double combination; no zinc chelator).
(§6) Two technical replicates were performed for each sample. An X in rows 1-8 in the table indicates bacterial growth, while a blank cell indicates no growth. Concentrations (μg/mL) of CAZ are given in row 0a. Concentrations (μg/mL) of AVI are given in row 0b. The zinc chelator was added in fixed concentrations, at 16 μg/mL in rows 3 and 4, at 8 μg/mL in rows 5 and 6, and 4 μg/mL in rows 7 and 8. As a control, the effect of CAZ and AVI (no zinc chelator) was tested (rows 1 and 2). All wells contained bacterial growth medium (caMHB, 29.4 μM Zn^2+) and were inoculated with the test bacterium. The grey cells indicate the CAZ MIC.
as §6, with “FEP” for “CAZ”
(§7) Two technical replicates were performed for each sample. An X in rows 1-8 in the table indicates bacterial growth, while a blank cell indicates no growth. Concentrations (μg/mL) of FEP are given in row 0a. Concentrations (μg/mL) of SUL are given in row 0b. […]

[2] = system: Klebsiella pneumoniae ST147 (NDM-1 and KPC-2); test: Checkerboard MIC, fixed ratio of sBLI to antibiotic (Examples 7-10); type: cell-based; details: caMHB 29.4 μM Zn2+
Description: as §1, §2, §3, §4, §5
as §6, with “0a).” for “0a.”
as §6, with “FEP” for “CAZ”
as §7

[3] = system: many strains of Acinetobacter baumannii; details: in combination with meropenem; cited from earlier work
[4] = zinc chelator 8 μg/mL, with CAZ and AVI (fixed ratio)
[5] = zinc chelator 8 μg/mL, with FEP and AVI (fixed ratio)
[6] = zinc chelator 8 μg/mL, with FEP and SUL (fixed ratio)
[7] = zinc chelator 8 μg/mL, with FEP and TAZ (fixed ratio)
[8] = zinc chelator 16 μg/mL, with CAZ and AVI (fixed ratio)
[9] = zinc chelator 16 μg/mL, with FEP and AVI (fixed ratio)
[10] = zinc chelator 16 μg/mL, with FEP and SUL (fixed ratio)
[11] = zinc chelator 16 μg/mL, with FEP and TAZ (fixed ratio)

## CN(C[C@H](O)[C@@H](O)[C@H](O)[C@H](O)CO)C(=O)c1ccc(CN(Cc2ccccn2)Cc2ccccn2)nc1 [zinc chelator]
[1]; zinc chelator 4 μg/mL, with CAZ and AVI (fixed ratio)
  synergy with the zinc chelator: variable synergy
[1]; zinc chelator 4 μg/mL, with FEP and AVI (fixed ratio)
  synergy with the zinc chelator: variable synergy
[1]; [4]
  synergy with the zinc chelator: Synergy
[1]; [5]
  synergy with the zinc chelator: Synergy
[1]; [6]
  synergy with the zinc chelator: Synergy
[1]; [7]
  synergy with the zinc chelator: Synergy
[1]; [8]
  synergy with the zinc chelator: Synergy
[1]; [9]
  synergy with the zinc chelator: Synergy
[1]; [10]
  synergy with the zinc chelator: Synergy
[1]; [11]
  synergy with the zinc chelator: Synergy
[2]; zinc chelator 4 μg/mL, with FEP and TAZ (fixed ratio)
  synergy with the zinc chelator: Synergy
[2]; [4]
  synergy with the zinc chelator: Synergy
[2]; [5]
  synergy with the zinc chelator: Synergy
[2]; [6]
  synergy with the zinc chelator: Synergy
[2]; [7]
  synergy with the zinc chelator: Synergy
[2]; [8]
  synergy with the zinc chelator: Synergy
[2]; [9]
  synergy with the zinc chelator: Synergy
[2]; [10]
  synergy with the zinc chelator: Synergy
[2]; [11]
  synergy with the zinc chelator: Synergy
[3]
  effect of combination with meropenem: poor effect
